Source: US10077446B2, “Glucan-encapsulated siRNA for treating type 2 diabetes mellitus” (The United States of America, as represented by THE …, priority 2013, dated 2018)

Tests used:
[1] = tested on: MIN6 insulinoma cells; assay: Cytokine, apoptotic gene, insulin and CB1R expression in MIN6 insulinoma cells; format: cell-based, mouse
Procedure: (§1) Mouse RAW264.7 macrophages (ATCC, Manassas, Va.) were cultured as previously described (Liu, et al. 2003 J Biol Chem 278:45034-45039) and were either treated during 4 hours with various concentrations of AEA (0.1, 0.5, 1, and 10 μM) and/or JD5037 (100 nM) or treated with 30 ng/mL of IL-1β (Abcam Ab9723). Mouse MIN6 insulinoma cells were a gift from NIDDK and were cultured in low glucose DMEM (Gibco 11885) supplemented with 15% FBS (BenchMark 100-006) and 1% antibiotic antimycotic cocktail (Invitrogen 15240-096). Cells were either treated during 4 hours with various concentrations of AEA (0.5, 1 and 5 μM) or treated with 30 ng/mL of IL-1β (Abcam Ab9723).
(§2) For both cell types, medium was collected and immediately frozen in liquid nitrogen. Cells were washed twice in ice-cold sterile PBS before harvesting. EC (endocannabinoid) levels were determined as previously 3, secretion of IL-1β, IL-18, TNF-α and MCP-1 in the medium were determined using ELISA kits (Biosensis BEK-2151-2P, Uscn Life Science & Technology Company E90064Mu, Biosensis BEK-2102-2P, Uscn Life Science & Technology Company E90087Mu, respectively).
MIN6 cells were treated either with vehicle, IL-1β (30 ng/mL), IL1R antagonist (10 ng/mL) for 3 hours or pre-treated 1 h with IL1R antagonist (10 ng/mL) followed by 3 h incubation with IL-1β (30 ng/mL). […] Blot quantification was performed using the gel analysis options of image J software.
(§3) Total mRNA from the liver, pancreas and kidney were extracted with Trizol (Invitrogen), while total mRNA from cells was extracted using RNEASY™ Mini Kit (Qiagen). All extractions were followed by DNase I treatment (Invitrogen). Total mRNA was reverse-transcribed using the ISCRIPT™ cDNA kit (Bio-Rad). Real-time PCR was performed as described previously (Jourdan, et al. 2010 Diabetes 59:926-934) in a 96-well plate using a STEPONEPLUS™ real time PCR system (Applied Biosystems). QUANTITECT™ Primer Assays were used to detect gene expression (Table 3, which lists the primers used for rat and mice (tissue)). Expression of the gene of interest is reported as a relative value comparing it to the geometric average of 18S, L19, L38 and TATA box binding protein expression.

[2] = tested on: Zucker diabetic fatty (ZDF) rats; assay: 28-day oral JD5037 treatment of 8-week-old diabetic ZDF rats; format: in vivo, rat
Source text: Zucker diabetic fatty (ZDF) rats were used to assess the role of endocannabinoids and CB1R in glycemic control and β-cell loss Animal protocols were approved by the Institutional Animal Care and Use Committee of the NIAAA, NIH. Male ZDF rats with their lean controls were obtained from Charles River Laboratories (Wilmington, Mass. 01887, USA). Rats were individually housed and maintained under a 12-h light/dark cycle and fed ad libitum with a standard laboratory diet (STD, NIH-31 rodent diet).
ZDF rats received JD5037 or vehicle (4% DMSO+1% Tween 80 in PBS) by oral gavage according to 2 different protocols. JD5037 was synthesized and its pharmacological properties analyzed as described earlier (Tam, et al. 2012 Cell Metab 16, 167-179). […]
(§4) In the first one, 8-week old diabetic ZDF rats were given 3 mg/kg JD5037 or vehicle for 28 days with lean controls receiving vehicle only. In the second protocol, similar treatment was started in 6-week old pre-diabetic ZDF rats and age-matched lean controls, and treatment continued for 12 weeks until the age of 18 weeks. Body weight and food intake were monitored daily. At the end of treatment in both protocols, rats were sacrificed by decapitation, the brain, liver, kidney, pancreas and combined fat pads were removed, weighed, and snap-frozen in liquid nitrogen or fixed in formalin, and trunk blood was collected for determining endocrine and biochemical parameters. Adiposity index was defined as the combined weight of the epidydimal, retroperitoneal and inguinal fat pads, expressed as % of total body weight. In the second protocol, blood samples were taken weekly to assess the progression of T2DM by measuring blood glucose and monthly to measure insulin and c-peptide levels.
(§5) Blood glucose levels were determined using the Elite glucometer (Bayer, Pittsburgh, Pa.). Serum alanine aminotransferase (ALT), total cholesterol, triglycerides. Plasma insulin was measured using the Ultra Sensitive rat Insulin ELISA kit (Crystal Chem Inc). Hemoglobin A1c was determined using the Rat Hemoglobin A1c (HbA1c) assay kit (Crystal Chem) and c-peptide was quantified by ELISA (C-peptide (rat) ELISA, ALPCO). Serum leptin and adiponectin were determined by ELISA (B-Bridge International). α-amylase, lipase, and uric acid concentrations were determined using commercially available colorimetric kits (BioAssay Systems). TNF-α and IL-1β were determined using TNF-α ELISA Kit (for Lysates) (RayBiotech, Inc.) and IL1β Rat ELISA Kit (Abeam), respectively.
To determine intra-hepatic triglyceride and cholesterol content, liver tissue was extracted as described previously (Folch, et al. 1957 J Biol Chem 226:497-509). After extraction, 0.5 ml of organic phase was transferred to a clean tube containing 1 ml of 2% Triton X-100 in chloroform and dried using nitrogen. The residue was re-solubilized in 1 ml of distilled water and used for triglycerides content using EnzyChrom™ Triglyceride Assay Kit.
Pancreas was fixed in 10% neutral buffered formalin (NBF), embedded in paraffin and sectioned ([…]) onto glass slides. […] For detection, secondary Ab coupled to FITC or PE were used (Table 2). Images were viewed with a Fluoview FV10i confocal microscope system (Olympus). […]

[3] = tested on: Zucker diabetic fatty (ZDF) rats; assay: Glucose-stimulated insulin secretion in intact ZDF rats and isolated islets; format: in vivo, rat
Procedure: Rats were fasted for 12 h, and tail blood was collected to determine basal insulin and c-peptide levels. Rats were then given glucose (3 g/kg) orally by gavage, and, 5 minutes later, tail blood was again collected for determining insulin and c-peptide levels, with the difference over baseline insulin considered as a measure of glucose-induced insulin release, and the comparison with parallel changes in c-peptide levels used to assess the role of insulin production vs. clearance in the observed change in plasma insulin levels.
After 4 days recovery, pancreata from treated animals were inflated via the common bile duct with a solution of LIBERASE™ TL Research Grade (1.18 U/ml, Roche Diagnostics) and digested for 30 min at 37° C. Islets were purified on a discontinuous Ficoll gradient (GE HEALTHCARE) and hand-picked under a stereomicroscope for immediate assessment of […] function by static incubation. Right after isolation, batches of 4 islets were pre-incubated for 2 h in RPMI 1640 containing NaHCO3 (2 g/l), HEPES (25 mM), 10% (v/v) neonatal calf serum (Invitrogen), pH 7.2, and 0.5 g/L glucose at 37° C. in an incubator containing 5% CO2. This was followed by successive 1 h incubations in the presence of 0.5, 1, 1.5, 2, and 3 g/L glucose. Supernatants were collected in each step for insulin quantification (Crystal Chem Inc). […]

[4] = tested on: Zucker diabetic fatty (ZDF) rats; assay: Hyperinsulinemic euglycemic clamp in ZDF rats; format: in vivo, rat
Procedure: Clamps and glucose tracer analyses in conscious, cannulated rats were performed as described: right jugular vein of 3 rats per group was catheterized a week prior to the experiment, and clamps were performed by continuous infusion of insulin at 3 mU/kg/min and co-infusion of 3H-D-glucose to maintain euglycemia. The protocol for radioactive clamps to evaluate glucose fluxes was adapted from Buettner, et al. (Buettner, et al. 2005 J Clin Invest 115:1306-1313). 3H-D-glucose (Perkin Elmer) was first infused at 0.8 μCi/min for one minute and then at 0.04 μCi/min for 2 h prior to insulin infusion, and the tritiated glucose infusion was pursued during the rest of the experiment at the same rate. 10 μl of blood were sampled from the tail 15 and 5 min before starting insulin infusion and 30, 20, 10 minutes before the end of the experiment.
Blood samples were centrifuged in order to obtain serum. Serum was snap frozen on dry ice and, once all the samples were available, 5 μl serum was transferred to 25 μl dionized water and then mixed with 25 μl of 0.1N ZnSO4. Samples were precipitated with addition of 25 μl of 0.1N Ba(OH)2. After centrifugation, the supernatant was dried overnight, resuspended in water, and counted in scintillation liquid. Glucose turnover was calculated as the ratio of tritiated glucose infusion rate over the specific activity of blood glucose.

[5] = tested on: Zucker diabetic fatty (ZDF) rats; assay: 12-week JD5037 treatment of 6-week-old pre-diabetic ZDF rats; format: in vivo, rat; settings: pre-diabetic 6-week-old ZDF rats, daily JD5037 for 3 months
Procedure: as §4, with “In the second protocol, blood samples were taken weekly to assess the progression of T2DM by measuring blood glucose and monthly to measure insulin and c-peptide levels.” left out
as §5, with “Serum alanine aminotransferase (ALT), total cholesterol, triglycerides.” left out, “TNF-α and IL-1β were determined using TNF-α ELISA Kit (for Lysates) (RayBiotech, Inc.) and IL1β Rat ELISA Kit (Abeam), respectively.” left out

[6] = tested on: RAW264.7 macrophages; assay: Proinflammatory signaling in cultured RAW264.7 macrophages; format: cell-based, mouse; settings: 4 h
Procedure: as §1, §2, §3

[7] = ZDF rats, 3 mg/kg JD5037 oral, 28 days
[8] = plasma, ZDF rats, 3 mg/kg/day JD5037 for 28 days, mean ± SEM

In the case of “IL-1R antagonist: IL-1 receptor antagonist used at 10 ng/mL in MIN6 cells”, the “IL-1β-induced reduction of CB1R mRNA and protein” value ([1]; IL-1R antagonist 10 ng/mL) is reported as “blocked”.
IL-1β: interleukin-1β (Abcam Ab9723) was tested, and the “maximally effective concentration for reducing insulin gene expression” value [1] was 30 ng/mL, the “CB1R mRNA and protein” value ([1]; 30 ng/mL IL-1β) was “drastically reduced” and the “anti-apoptotic genes Bcl-2 and Bcl-xl” value ([1]; 30 ng/mL IL-1β) was “drastically suppressed”. For the same compound, the “pro-apoptotic genes Bak and Bax” value ([1]; 30 ng/mL IL-1β) was “markedly induced”.
`CC(C)[C@H](N/C(=N\S(=O)(=O)c1ccc(Cl)cc1)N1C[C@H](c2ccccc2)C(c2ccc(Cl)cc2)=N1)C(N)=O` [JD5037, (S)-2-((S,E)-3-(4-chlorophenyl)-N′-((4-chlorophenyl)sulfonyl)-4-phenyl-4,5-dihydro-1H-pyrazole-1-carboximidamido)-3-methylbutanamide] was tested, and the “elevated Nlrp3, IL-1β, IL-18, p65 NFκB, caspase-1 activity, TXNIP and IL-1 receptor mRNA” value ([2]; ZDF islets/pancreas, JD5037 28 days) was “completely reversed”, the “ASC mRNA” value ([2]; ZDF pancreas, JD5037 4 weeks) was “normalized” and the “small increase in AIM-2 expression” value ([2]; ZDF pancreas, JD5037 4 weeks) was “unaffected”. The “expression of the IL-1R antagonist” value ([2]; ZDF pancreas, JD5037 28 days) was “increased”, the “body weight or adiposity” value [2, 7] was “did not affect” and the food intake [2, 7] was “small reduction”. For the same compound, the “hyperglycemia of ZDF rats” value [2, 7] was “completely reversed”, the “hyperinsulinemia (along with increased C-peptide levels)” value [2, 7] was “paradoxically enhanced” and the “steatosis, associated hepatocellular damage, increased lipogenic gene expression” value [2, 7] was “greatly attenuated”. For the same compound, the “fasting blood glucose and HbA1c” value ([2]; ZDF rats, 3 mg/kg JD5037 oral, 28 days, FIG. 1c) was “normalizes”, the Tunel-positive islet cells ([2]; ZDF rats, JD5037 4 weeks) was “reduced number” and the “decreased plasma adiponectin and pancreatic expression of adipoR1 and adipoR2” value ([2]; ZDF rats, JD5037 4 weeks) was “reversed”. The “insulin mRNA and protein in ZDF islets” value ([2]; ZDF rats, JD5037 4 weeks) was “normalized”, the “reduced pancreatic expression of glucokinase (Glck) and Glut2” value ([2]; ZDF rats, JD5037 4 weeks) was “normalized” and the “increased pancreatic anandamide levels” value ([2]; ZDF rats, JD5037 4 weeks, LC/MS/MS) was “normalized”. For the same compound, the “macrophage infiltration of islets” value ([2]; ZDF rats, JD5037 28 days) was “reduced”, the “rise in expression of CB1R in islets” value ([2]; ZDF vs. lean rats, JD5037 4 weeks) was “reversed” and the Adiponectin [2, 8] was 5.70 ± 0.07 µg/mL. The Cholesterol [2, 8] was 104.8 ± 3.85 mg/dL, the IL-1β [2, 8] was 7.63 ± 0.78 ng/mL and the Leptin [2, 8] was 9.48 ± 0.31 ng/mL. The TG [2, 8] was 817.6 ± 31.36 mg/dL, the TNF-α [2, 8] was 0.83 ± 0.07 pg/mL and the Uric acid [2, 8] was 2.57 ± 0.04 µg/mL. The “elevated basal insulin levels” value ([3]; ZDF rats, JD5037-treated) was “did not affect”, the “GSIS (glucose-stimulated insulin secretion)” value ([3]; both in vivo and in vitro (isolated islets)) was “restored” and the insulin resistance [4] was “not significantly affected”. For the same compound, the peripheral glucose uptake ([4]; FIG. 1d) was “slightly improves”, the hyperglycemia [5] was “attenuated and its development delayed” and the “rapid decline in plasma insulin and c-peptide” value [5] was “largely prevented”.
For `CCCCC/C=C\C/C=C\C/C=C\C/C=C\CCCC(=O)NCCO` [anandamide], the “concentration at which peak changes in cytokine secretion were observed” value ([6]; RAW264.7 cells) was 0.5 µM, the “secretion of IL-1β, TNF-α, and MCP-1” value ([6]; RAW264.7 cells) was “markedly increased” and the CB2R expression ([6]; RAW264.7 macrophages) was “without affecting”. The “expression of Nlrp3 and caspase-1” value ([6]; RAW264.7 macrophages) was “robustly increased”, the “maximally effective concentration for reducing insulin gene expression” value [1] was 0.5 µM and the “pro- and anti-apoptotic gene expression” value ([1]; 0.5 μM anandamide) was “little or no effect”. For the same compound, the “levels of IL-1β, TNF-α, and MCP-1 in the medium” value ([1]; 4 h) was “did not affect”.
